Experimental data reported in patent publication US20190135887A1, “METABOLICALLY STABLE SPEXIN PEPTIDE ANALOGS” (UNIVERSITÉ DE STRASBOURG, priority 2016, published 2019).
Where two headings read alike, the source gives them in different places. Peptide text beside a SMILES is read from it. * marks the point of attachment. Propanoyl(3-C8F17) = O=C(CCC(F)(F)C(F)(F)C(F)(F)C(F)(F)C(F)(F)C(F)(F)C(F)(F)C(F)(F)F)*

What was measured:
human GALR1 = biological target: T1, human GALR1 (Homo sapiens, UniProt P47211); experiment: Forskolin-induced cAMP accumulation, GloSensor cAMP assay in HEK293 cells; assay type: cell-based; conditions: HEK293 cells stably expressing GalR1, 1 μM compound
T1 construct: expressed in transfected cells; transiently transfected with pGloSensor-22F
T1 sequence (P47211 1-349): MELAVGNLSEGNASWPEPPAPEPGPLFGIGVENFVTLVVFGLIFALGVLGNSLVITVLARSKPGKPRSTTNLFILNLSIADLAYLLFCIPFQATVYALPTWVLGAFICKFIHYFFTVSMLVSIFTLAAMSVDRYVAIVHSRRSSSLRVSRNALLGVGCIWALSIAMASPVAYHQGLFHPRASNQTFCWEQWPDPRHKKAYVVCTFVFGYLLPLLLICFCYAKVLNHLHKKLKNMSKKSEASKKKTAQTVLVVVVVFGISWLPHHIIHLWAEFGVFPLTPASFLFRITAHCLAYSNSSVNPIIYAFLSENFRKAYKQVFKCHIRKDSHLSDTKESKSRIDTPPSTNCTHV
Procedure: The effects were examined by using the GloSensor™ cAMP Assay according to manufacturer recommendations (Promega, Madison Wis., USA) with a few modifications. […] Following pre-equilibration for 2 h at 25° C., D-luciferin-loaded cells were distributed (100,000 cells per well) in a white 96-well plate and kinetic recordings of their luminescence level were acquired using a FlexStation II (Molecular Devices, Sunnyvale Calif., USA). Compounds to be tested were injected at various concentrations 10 min before forskolin addition (0.5 μM final concentration) and readings were pursued for 30 min. Experiments were conducted at 25° C. in the presence of 0.1 mM IBMX to prevent the degradation of cAMP by phospodiesterases.

GalR2 = biological target: T2, GalR2 (Homo sapiens, UniProt O43603); experiment: Calcium mobilization in CHO cells expressing GalR2; assay type: cell-based
T2 construct: expressed in transfected cells; host or cells: CHO cells
T2 sequence (O43603 1-387): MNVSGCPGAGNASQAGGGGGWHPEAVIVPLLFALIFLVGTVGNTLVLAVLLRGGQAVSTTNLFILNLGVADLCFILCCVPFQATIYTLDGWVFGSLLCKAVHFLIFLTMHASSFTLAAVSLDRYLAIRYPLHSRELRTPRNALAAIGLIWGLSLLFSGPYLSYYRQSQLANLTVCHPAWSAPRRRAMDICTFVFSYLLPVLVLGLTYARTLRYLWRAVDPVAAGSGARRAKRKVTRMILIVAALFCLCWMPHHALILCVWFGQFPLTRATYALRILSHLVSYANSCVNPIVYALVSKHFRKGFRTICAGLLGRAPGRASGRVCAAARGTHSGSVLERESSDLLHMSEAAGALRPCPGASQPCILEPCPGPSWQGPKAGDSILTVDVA

[1] = Non-specific adsorption to Eppendorf protein LoBind tubes; conditions: 10 μM in HEPES/BSA buffer
Procedure: The propensity of spexin analogs to bind to Eppendorf protein LoBind tubes was evaluated.
A solution of 10 μM of spexin analogs in solution in HEPES/BSA buffer was added to Eppendorf protein LoBind tubes, stirred for 5 min and vortexed for 2 min. The supernatant was removed from the tube and acetonitrile was added to dissolve the compound adsorbed to the plastic. The amount of peptide recovered was then evaluated by HPLC-MS/MS following the same protocol than above described for plasma stability analysis. The non-specific adsorption of peptides (%) was calculated by comparing the peak area of each compound recovered to that obtained with the same compound in DMSO (prevent the adsorption of the compounds to plastic).

[2] = Solubility in water by visual observation; assay type: physicochemical; conditions: dissolution in water to reach 100 μM
Procedure: The resulting solution was vortexed 1 min following by 1 min in bath sonication. Solubility was then assessed by visual observation of the resulting dispersion (Clear/Cloudy and presence of particulates).

[3] = biological target: T3, human galanin GAL2 receptor (Homo sapiens, UniProt O43603); experiment: Radioligand binding assay, [125I]galanin, transfected CHO cell membranes; conditions: read-out: Affinity % of inhibition at 100 nM
T3 construct: expressed in transfected cells; host or cells: CHO cells (membrane homogenates)
T3 sequence (O43603 1-387): T2 sequence (O43603 1-387)
Procedure: Following incubation, the samples are filtered rapidly under vacuum through glass fiber filters (GF/B, Packard) presoaked with 0.3% PEI and rinsed several times with ice-cold 50 mM Tris-HCl using a 96-sample cell harvester (Unifilter, Packard). The filters are dried then counted for radioactivity in a scintillation counter (Topcount, Packard) using a scintillation cocktail (Microscint 0, Packard). The results are expressed as a percent inhibition of the control radioligand specific binding.

Human plasma stability = assay type: in vitro ADME; conditions: 37° C., 2 h incubation, read-out: Human plasma stability (t1/2)
Procedure: This procedure is designed to determine the stability of a test compound in blood or plasma from human or animal species in a 96-well plate format. The test compound is quantified at 5 time points by HPLC-MS/MS analysis. Test concentration: 1 μM with a final DMSO concentration of 0.5%. Experimental protocol: Blood or plasma are pre-warmed at 37° C. water bath for 5 min, followed by addition of the test compound. The incubation is performed in a 37° C. water bath for 2 h. An aliquot of the incubation mixture is transferred to acetonitrile at 0, 0.5, 1, 1.5 and 2 h, respectively. Samples are then mixed and centrifuged. Supernatants are used for HPLC-MS/MS analysis. Reference compounds Propoxycaine and propantheline are tested simultaneously with the test compound in each assay. Analytical methods Samples are analyzed by HPLC-MS/MS using selected reaction monitoring. The HPLC system consists of a binary LC pump with autosampler, a C-18 column, and a gradient. Conditions may be adjusted as necessary. Data analysis Peak areas corresponding to the test compound are recorded. The compound remaining (%) is calculated by comparing the peak area at each time point to time zero. The half-life is calculated from the slope of the initial linear range of the logarithmic curve of compound remaining (%) vs. time, assuming first order kinetics.

C57BL/6N male mice = experiment: Tail immersion test (nociception); assay type: in vivo
Procedure: Tail immersion test: Nociception tests were performed on male, awake C57BL/6N male mice (25-30 g weight; Janvier Labs, France). Animals were housed in groups of five per cage and kept under a 12 h/12 h light/dark cycle at 21±1° C. with ad libitum access to food and water. Experiments were performed during the light-on phase of the cycle. Mice were habituated to the testing room and equipment and handled for 1 week before starting behavioural experiments. The nociceptive thermal threshold of mice was determined using the tail immersion test. Mice were restrained in a grid pocket and their tail was immersed in a thermostated water bath. The latency (in sec) for tail withdrawal from hot water (47±0.5° C.) was taken as a measure of the nociceptive response.

[4] = CHO cells expressing GalR2, Fluo-4 AM, 37° C., read-out: EC50 Ca2+ production

Structure (SMILES)	% of activity at 1 μM (human GALR1)	EC50 (GalR2; [4])	Non-specific adsorption of peptide [1]	solubility [2]	inhibition at 0.1 µM [3]	half-life at 1 μM (Human plasma stability)	tail immersion withdrawal latency (C57BL/6N male mice; 0.1 nmol icv, 15 min, baseline 9.99±0.5 sec)	tail immersion withdrawal latency (C57BL/6N male mice; 0.1 nmol icv, 30 min, baseline 9.99±0.5 sec)	tail immersion withdrawal latency (C57BL/6N male mice; 1 nmol icv, 15 min, baseline 10.12±0.59 sec)	tail immersion withdrawal latency (C57BL/6N male mice; 1 nmol icv, 30 min, baseline 10.12±0.59 sec)	EC50 (GalR2)	solubility at 2 min [2]
CSCC[C@H](NC(=O)[C@H](C)NC(=O)[C@H](CCC(N)=O)NC(=O)[C@@H]1CCCN1C(=O)[C@@H](NC(=O)[C@H](Cc1c[nH]c2ccccc12)NC(=O)[C@H](CC(N)=O)NC(C)=O)[C@@H](C)O)C(=O)N[C@@H](CC(C)C)C(=O)N[C@@H](Cc1ccc(O)cc1)C(=O)N[C@@H](CC(C)C)C(=O)N[C@@H](CCCCN)C(=O)NCC(=O)N[C@@H](C)C(=O)N[C@@H](CCC(N)=O)C(=O)N[C@@H](CCCCNC(=O)CCC(F)(F)C(F)(F)C(F)(F)C(F)(F)C(F)(F)C(F)(F)C(F)(F)C(F)(F)F)C(N)=O [LE-128]	0%	2.3 ± 4 nM	–	–	–	–	–	–	–	–	–	–
CSCC[C@H](NC(=O)[C@H](C)NC(=O)[C@H](CCC(N)=O)NC(=O)[C@@H]1CCCN1C(=O)[C@@H](NC(=O)[C@H](Cc1c[nH]c2ccccc12)NC(=O)[C@H](CC(N)=O)NC(=O)[C@H](CCCNC(=N)N)NC(=O)CNC(=O)[C@H](CCCNC(=N)N)NC(=O)CCC(F)(F)C(F)(F)C(F)(F)C(F)(F)C(F)(F)C(F)(F)C(F)(F)C(F)(F)F)[C@@H](C)O)C(=O)N[C@@H](CC(C)C)C(=O)N[C@@H](Cc1ccc(O)cc1)C(=O)N[C@@H](CC(C)C)C(=O)N[C@@H](CCCCN)C(=O)NCC(=O)N[C@@H](C)C(=O)N[C@@H](CCC(N)=O)C(N)=O [LE-130] ({Propanoyl(3-C8F17)}-RGRNWTPQAMLYLKGAQ-NH2)	0%	0.089 ± 0.04 nM	15%	> 100 µM	98.4%	5.7 h	–	–	–	–	–	–
CSCC[C@H](NC(=O)[C@H](C)NC(=O)[C@H](CCC(N)=O)NC(=O)[C@@H]1CCCN1C(=O)[C@@H](NC(=O)[C@H](Cc1c[nH]c2ccccc12)NC(=O)[C@H](CC(N)=O)NC(=O)CCC(F)(F)C(F)(F)C(F)(F)C(F)(F)C(F)(F)C(F)(F)C(F)(F)C(F)(F)F)[C@@H](C)O)C(=O)N[C@@H](CC(C)C)C(=O)N[C@@H](Cc1ccc(O)cc1)C(=O)N[C@@H](CC(C)C)C(=O)N[C@@H](CCCCN)C(=O)NCC(=O)N[C@@H](C)C(=O)N[C@@H](CCC(N)=O)C(N)=O [LE-144]	0%	0.038 ± 0.008 nM	42%	> 100 µM	100%	2.5 h	14.26 ± 0.93 s	14.06 ± 0.34 s	15.58 ± 0.61 s	13.94 ± 0.75 s	–	–
CSCC[C@H](NC(=O)[C@H](C)NC(=O)[C@H](CCC(N)=O)NC(=O)[C@@H]1CCCN1C(=O)[C@@H](NC(=O)[C@H](Cc1c[nH]c2ccccc12)NC(=O)[C@H](CC(N)=O)NC(C)=O)[C@@H](C)O)C(=O)N[C@@H](CC(C)C)C(=O)N[C@@H](Cc1ccc(O)cc1)C(=O)N[C@@H](CC(C)C)C(=O)N[C@@H](CCCCN)C(=O)NCC(=O)N[C@@H](C)C(=O)N[C@@H](CCC(N)=O)C(=O)N[C@@H](CCCCNC(=O)C(CCCNC(=N)N)NC(=O)CNC(=O)C(CCCNC(=N)N)NC(=O)CCC(F)(F)C(F)(F)C(F)(F)C(F)(F)C(F)(F)C(F)(F)C(F)(F)C(F)(F)F)C(N)=O (some centres unmarked) [LE-146]	–	–	–	–	–	–	–	–	–	–	8.4 ± 0.7 nM	–
CSCC[C@H](NC(=O)[C@H](C)NC(=O)[C@H](CCC(N)=O)NC(=O)[C@@H]1CCCN1C(=O)[C@@H](NC(=O)[C@H](Cc1c[nH]c2ccccc12)NC(=O)[C@@H](N)CC(N)=O)[C@@H](C)O)C(=O)N[C@@H](CC(C)C)C(=O)N[C@@H](Cc1ccc(O)cc1)C(=O)N[C@@H](CC(C)C)C(=O)N[C@@H](CCCCN)C(=O)NCC(=O)N[C@@H](C)C(=O)N[C@@H](CCC(N)=O)C(N)=O [SPEXIN]	0%	–	–	–	68.3%	2.52 h	–	–	–	–	–	> 100 µM
